This is an account of results in article PMC11789599, “Co‐Translational Deposition of N ^6‐Acetyl‐L‐Lysine in Nascent Proteins Contributes to the Acetylome in Mammalian Cells” (Advanced Science, 2024).

The target of test [1] is T1, Lysyl-tRNA synthetase (KARS) (Homo sapiens, UniProt Q15046). The test is described as follows: biochemical. Further details: gene KARS1.
The target in test [2] is T1, Lysyl-tRNA synthetase (KARS). As to the kind of experiment: co-crystal structure at […] Å; MST Kd; also ATP consumption/AMP production by purified KARS. Details: gene KARS1; KARS70-580, C-terminal 6xHis. Format: binding.

Structures are written as SMILES.

For orientation: Kd means a measure of binding affinity in units of concentration. Higher therefore signals lower affinity.

T1 sequence (Q15046 70-580): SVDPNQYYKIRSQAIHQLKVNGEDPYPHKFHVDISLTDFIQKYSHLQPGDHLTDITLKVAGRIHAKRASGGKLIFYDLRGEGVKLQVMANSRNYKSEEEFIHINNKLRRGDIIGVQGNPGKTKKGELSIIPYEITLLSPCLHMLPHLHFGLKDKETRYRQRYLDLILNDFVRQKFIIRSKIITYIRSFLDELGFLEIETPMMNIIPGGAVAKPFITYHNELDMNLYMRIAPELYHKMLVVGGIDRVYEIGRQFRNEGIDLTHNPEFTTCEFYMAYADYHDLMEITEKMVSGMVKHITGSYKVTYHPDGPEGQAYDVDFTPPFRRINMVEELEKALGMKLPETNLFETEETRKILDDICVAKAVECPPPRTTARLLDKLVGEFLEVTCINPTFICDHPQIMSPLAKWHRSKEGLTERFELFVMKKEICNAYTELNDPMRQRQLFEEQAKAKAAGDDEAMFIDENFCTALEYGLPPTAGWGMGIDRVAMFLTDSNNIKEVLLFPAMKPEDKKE

With `NCCCC[C@H](N)C(=O)O` [L-lysine], the affinity in test [1], expressed as Kd, was 118 ± 55.5 µM. Compound `CC(=O)NCCCC[C@H](N)C(=O)O` [AcK, N6-acetyl-L-lysine] had a Kd in test [2] of 407 ± 291 µM.
